Results from paper PMC5694373 (European journal of pharmaceutical sciences : official …, 2017).
Values joined by “and” are separate entries in the source; they are usually repeats but may differ in a detail not shown here. Identical values can stand only once.

Experiments:
[1] = target: neuraminidase of oseltamivir-resistant pandemic 2009 H1N1 A/Hong Kong/2369/2009 [H275Y] (HK/09-H275Y) (Influenza A virus, UniProt C6KQ69); assay: biochemical; assay type: biochemical
[2] = test system: oseltamivir-resistant HK/09-H275Y influenza; assay type: cell-based, influenza A virus H1N1
[3] = test system: mixture of 99% MX/09 and 1% oseltamivir-resistant HK/09-H275Y; assay type: cell-based, influenza A virus H1N1
[4] = target: neuraminidase of zanamivir-resistant seasonal 2008 H1N1 A/Brazil/1633/2008 [Q136K] (BZ/08-Q136K) (Influenza A virus, UniProt A4GBY0, Q136K); assay type: biochemical
[5] = test system: HK/09-H275Y subpopulation in 99% MX/09 + 1% HK/09-H275Y infection; assay type: cell-based, influenza A virus H1N1

Molecule: CC(=O)N[C@H]1[C@H]([C@H](O)[C@H](O)CO)OC(C(=O)O)=C[C@@H]1N=C(N)N [Zanamivir, zanamivir]
- IC50 [1]: 7.22 pM
- reduction of peak viral titers [2]: approximately 4 log10 PFU/ml
- viral burden lower than the no-treatment control [3]: at least 2 log10

Molecule: Oseltamivir carboxylate
- IC50 values (95% Confidence Interval) [1]: 15.30 (10.16 – 20.44) ng/ml
- IC50 values (95% Confidence Interval) [4]: 0.0028 (0.0005 – 0.0051) ng/ml
- HK/09-H275Y subpopulations [5]: 76% and 83%
- effect on viral burden relative to no-treatment control [3]: peak viral load equivalent to that of the no-treatment control by 72 h
